Assay results from patent US12178838B2, “Synthetic neuromodulatory peptides” (Lactocore, Inc., priority 2019, dated 2024).
Several values for one entry are separate records, joined by “and”; a condition that tells them apart may be missing. Equal entries are not always repeated. Where two headings read alike, the source gives them in different places. No end group written: not given here.

Key:
[1] = test system: FQSE (SEQ ID NO:10)-specific binding sites in the rat cortex; assay: Radioligand analysis with [3H] FQSE on rat cortex membranes
Protocol: After decapitation, the tissues were immediately frozen in liquid nitrogen and stored in a low-temperature refrigerator at −80° C. On the day of the experiment, brain tissue (cortex, about 300 mg) was homogenized in a Teflon-glass Potter homogenizer 1:25 W:V in the buffer (50 mM Tris-HCl, pH 7.4). The homogenate was centrifuged at 40,000 g for 20 min. The obtained precipitate was homogenized in a buffer (50 mM Tris-HCl; pH=7.4) and centrifuged again at 40,000 g for 20 min. A similar procedure was performed again. The precipitate was resuspended in 15 ml of the same buffer and used for the radioligand analysis.
The incubation mixture (final volume 0.5 ml) contained 50 μl […]
At the end of the incubation, the samples were filtered through Ge/C glass fiber filters (Whatman) previously moistened with 0.3% polyethyleneimine for 2 hours at room temperature. Each tube was washed twice with cold buffer, then the filters were washed twice with the same volume of buffer.
The filters were air-dried and transferred to scintillation vials. Filters were poured with 5 ml of toluene-based scintillation liquid (4 g PPO, 0.2 g POPOP per liter of toluene).
To construct the curves of the radioactive ligand's displacement each concentration of the test substance was taken in 3 replications. […]

zebrafish (Danio rerio) [2] = assay: Open Field test in zebrafish; format: in vivo; details: ip; for average distance covered / track length (locomotor activity): diazepam 1.25, 5, 10, fluvoxamine 5, 10, ACZ-10 0.6, BCM-7 5, FQSE 1 and 10, DKTE 1, WDQV 10 mg/kg; for time spent at the surface of the aquarium: fluvoxamine 5 and 10 mg/kg, FQSE 1 mg/kg
Protocol: (§1) The tested substances were injected into the zebrafish intraperitoneally (ip) using an insulin syringe (0.5 ml, 30 g) 10 minutes before the test. The saline solution (0.9% NaCl) was used as a solvent. Anesthesia and immobilization of the animals were achieved by placing them in water at a temperature of 10° C. Control group fish received intraperitoneal injections of an equivalent volume of solvent, also after going through a pre-cooling procedure.
(§2) A base, back, and side walls of the aquarium were made of matte black plastic; the front panel (shorter wall) was made of transparent Plexiglas. The setup for the Light/Dark preference test consisted of three main parts: a launch compartment, a light compartment made of white plastic, and a dark compartment made of black plastic. The bright lighting in these tests was provided by a lamp on a stand (LED lamp PL, 11 W, light flux≈600 Lm, about 500 Lx directly above the water surface), which was attached to the upper part of the aquarium.
(§3) The open field test was performed as described in Maximino et al., 2013. A video recording (background shooting) was started 20-30 seconds before the zebrafish were placed in the test aquarium. The experimental zebrafish was placed in an open field (“OF”) aquarium using a net. The recording was being conducted for five minutes. The test was carried out using EthoVision XT software package (Noldus). The software registered the distance covered by the animal, its speed, the number of visits to the three conventional zones of the aquarium: “bottom,” “center,” and […] (lower, middle, and upper thirds of the aquarium, respectively), the time spent in these zones, and the latency of a visit to the middle and to the surface of the aquarium.

Sprague Dawley rats = assay: Forced swim test in rats, intranasal FQSE; format: in vivo; details: FQSE 0.5 mg/kg i.n.; ketamine 10 mg/kg IP
Protocol: The five doses of FQSE (SEQ ID NO:10) (0.01, 0.1, 0.5, 1 and 3 mg/kg, CS, Menlo Park, CA) were prepared fresh for each test day in sterile saline and administered intranasally (i.n.) 30 minutes prior to testing. Fifteen rats per group per peptide dose were tested with the exception that there were twenty rats in the vehicle (0) group. Each dose was administered in a randomized order across rats. Prior to dosing, the rats were lightly anesthetized (till loss of righting reflex) with isoflurane (2.5%, 0.5 L/min oxygen), placed in the recumbent position, then a thin plastic pipette (Fischer Scientific) inserted into the nares and peptide administered at a volume of 15-20 uL per nares. Individuals performing the behavioral tests were blind to drug treatment.
Rats were first allowed to acclimate to the testing room for 30 minutes while in their home cage. The forced swim tests were conducted using Plexiglas cylinders (10 in width, 18 in height) filled with water maintained at approximately 25° C. On day 1, rats were first habituated (15 minutes) to the forced swim apparatus by being placed into the water facing the cylinder wall. Forced swim tests (5 minutes) occurred the following day. Activity was recorded by digital cameras and analyzed with specialized software (Ethovision XT12).
Statistical significance was set at P<0.05.

zebrafish (Danio rerio) [3] = assay: Shoaling behavior test in zebrafish; format: in vivo; details: ip; for time spent in the compartment near the shoal: ACZ-10 0.6 mg/kg
Protocol: as §1
A Plexiglas container with a removable partition (shown in FIG. 4) was used as a setup for investigating the shoaling behavior of zebrafish. A shoal of 5 adult Danio rerio specimens was placed into in the small compartment; and the test fish was placed in a large compartment. Diffused lighting in this installation was provided by the usual lighting of the room (about 200 Lx).
(§4) The shoaling behavior test was performed as described in Parker et al., 2014. (Parker et al. (2014) The utility of zebrafish to study the mechanisms by which ethanol affects social behavior and anxiety during early brain development. Prog. Neuro-Psychopharmacology Biol. Psychiatry. 94-100). The video recording began simultaneously with placing the zebrafish in the set-up and recorded for 5 minutes. The videos were processed using RealTimer (OpenScience Ltd., Moskow, Russia). During the processing of the records, the residence time and the number of visits to the three conventional zones of the aquarium wall (near the “shoal” in the middle of the aquarium, and near the opposite side; all three were equal in size) were recorded.

zebrafish (Danio rerio) [4] = assay: Light/dark box test in zebrafish; format: in vivo; details: ip
Protocol: as §1, §2
(§5) The light/dark box (LDB) test was performed as described in Maximino et al., 2011. The zebrafish was placed in a light compartment of an LDB using a net, the camera was switched on simultaneously, and the behavior of the zebrafish was recorded for 5 minutes. The video was processed using RealTimer (OpenScience). During the processing of records, the residence time and the number of visits to the light and dark compartments of the test setup were recorded, as well as the latent period of visiting both compartments.

zebrafish (Danio rerio) [5] = assay: Zebrafish behavioral tests taken together (open field, light/dark box, shoaling); format: in vivo; details: ip; for basic behavioral parameters in open field, light/dark box and shoaling tests: FLPY 1 and 10 mg/kg, DKTE 10 mg/kg, WDQV 1 mg/kg
Protocol: as §1, §3, §4, §5

[6] = diazepam 1.25 mg/kg, BCM-7 5 mg/kg, DKTE 1 mg/kg, vs control
[7] = FQSE 10 mg/kg, ACZ-10 0.6 mg/kg

For `CC(=O)[C@H]1CC[C@H]2[C@@H]3CC[C@H]4C[C@H](O)CC[C@]4(C)[C@H]3CC[C@]12C` [Allopregnanolone], the “Amount of bound [3H] FQSE after pre-incubation compared to control level” value (shortened to “Amount of bound … compared to control level”) [1] was 100.90% and 103.18%.

`CC(C)(C)OC(=O)c1ncn2c1[C@@H]1CCCN1C(=O)c1c(Br)cccc1-2` [Bretanezil] was tested, and the “Amount of bound … compared to control level” value [1] was 94.79% and 104.51%.

In the case of `CCCCCCN(CCCCCC)C(=O)Cc1c(-c2ccc(F)cc2)[nH]c2ccccc12` [FGIN-1-27], the “Amount of bound … compared to control level” value [1] is reported as 102.65% and 102.33%.

In the case of `COCCCC/C(=N\OCCN)c1ccc(C(F)(F)F)cc1` [Fluvoxamine], the “increase of the time spent in the upper part” value (zebrafish (Danio rerio) [2]; FQSE 10 mg/kg, fluvoxamine 5 mg/kg) is reported as “more than 80%”, the “average distance covered / track length (locomotor activity)” value (“average distance covered / track length” for short) (zebrafish (Danio rerio) [2]) is reported as “did not demonstrate any significant effects” and the “increase of the time spent under light” value (zebrafish (Danio rerio) [2]; fluvoxamine 5 mg/kg) is reported as “about 6.8 times”. The “increase of the time spent under light” value (zebrafish (Danio rerio) [2]; fluvoxamine 10 mg/kg) was “about 7.2 times” and the “time spent at the surface of the aquarium” value (zebrafish (Danio rerio) [2]; ACZ-10 0.6 mg/kg) was “statistically significant increase”.

`Oc1noc2c1CCNC2` [Gaboxadol] was tested, and the “Amount of bound … compared to control level” value [1] was 99.31% and 100.25%.

In the case of `O=C(O)C1=CCNCC1` [Isoguvacine], the “Amount of bound … compared to control level” value ([1]; 10^−4M, 1 hour preincubation, 25 minutes incubation) is reported as 102.56%, the “Amount of bound … compared to control level” value ([1]; 10^−5M, 1 hour preincubation, 25 minutes incubation) is reported as 104.33% and the IC50 ([1]; Series 5, 25 and 50 minutes at room temperature, read-out: IC50 with respect to [3H]-FQSE binding) is reported as over 100 µM.

Work on `CNC1(c2ccccc2Cl)CCCCC1=O` (stereo not shown) [Ketamine] yielded an immobility (Sprague Dawley rats) of 196.4 ± 8.9 s and a mobility (Sprague Dawley rats) of 103.6 ± 8.9 s.

Work on `O=C(c1ccc(F)cc1)C1CCN(CCn2c(=O)[nH]c3ccccc3c2=O)CC1` [Ketanserin] yielded an IC50 ([1]; 25 min incubation at RT, read-out: IC50 with respect to [3H]-FQSE binding) of over 100 µM.

`Cn1ncnc1COc1nn2c(-c3c(F)cccc3F)nnc2cc1C1CCC1` [MK0343] was tested, and the “Amount of bound … compared to control level” value [1] was 98.58% and 104.65%.

With `CC(=O)[C@H]1CC[C@H]2[C@@H]3CC=C4C[C@@H](O)CC[C@]4(C)[C@H]3CC[C@]12C` [Pregnenolone] the “Amount of bound … compared to control level” value [1] was 87% and 81%, the IC50 ([1]; RT, 50 min, read-out: IC50 after different incubation times: 50 min) was 36 ± 0.2 µM and the IC50 ([1]; RT, 1 h 30 min, read-out: IC50 after different incubation times: 1 h 30 min) was 75 ± 0.3 µM. For the same compound, the IC50 ([1]; RT, 1 h, read-out: IC50 after different incubation times: 1 h) was 77 ± 0.2 µM and the IC50 ([1]; read-out: IC50 for the [3H]-FQSE binding sites in rat cortex membranes) was about 100 µM.

For `O=C(N/N=C/c1ccccc1O)c1ccccc1O` [SCS], the “Amount of bound … compared to control level” value [1] was 93.93% and 104.58%.

In the case of `Cn1c2ccc(F)cc2c2c(C(=O)N3CCCC3)cn(-c3ccccc3)c(=O)c21` [SL 651498], the “Amount of bound … compared to control level” value [1] is reported as 101.36% and 106.98%.

For `CC1(C)CC(=O)c2c(SCCO)sc(-c3nccs3)c2C1` [TB21007], the “Amount of bound … compared to control level” value [1] was 103.14% and 105.28%.

For `C[C@]12CC[C@@H](O)C[C@@H]1CC[C@@H]1[C@@H]2CC[C@]2(C)[C@@H](C(=O)CO)CC[C@@H]12` [THDOC, tetrahydrodeoxycorticosterone; 3α,21-dihydroxy-5α-pregnan-20-one], the “Amount of bound … compared to control level” value [1] was 100.59% and 103.38%.

In the case of DKTE: tetrapeptide D, K, T, E, the “latent period of visiting the bottom of the aquarium” value (zebrafish (Danio rerio) [2]; DKTE 1 mg/kg) is reported as “increase”, the “average distance covered / track length” value (zebrafish (Danio rerio) [2]) is reported as “did not affect” and the “latent period of visiting the shoal” value (zebrafish (Danio rerio) [3]; DKTE 1 mg/kg) is reported as “statistically significant increase”. For the same compound, the “time spent in the compartment near the shoal” value (zebrafish (Danio rerio) [3]; [6]) was “at the level of tendency”, the “time spent outside the shoaling compartment (near the wall opposite to the shoal)” value (zebrafish (Danio rerio) [3]; diazepam 5 mg/kg, FQSE 10 mg/kg, DKTE 1 mg/kg, vs control) was “statistically significant increase” and the “change in behavior / efficacy in the light/dark box test” value (zebrafish (Danio rerio) [4]; fluvoxamine 5 and 10 mg/kg, DKTE 1 mg/kg) was “no observed efficacy”. For the same compound, the “basic behavioral parameters in open field, light/dark box and shoaling tests” value (zebrafish (Danio rerio) [5]) was “did not cause any statistically significant changes”.

In the case of “FLPY: tetrapeptide used as a negative control”, the “basic behavioral parameters in open field, light/dark box and shoaling tests” value (zebrafish (Danio rerio) [5]) is reported as “neither of the doses of FLPY (SEQ ID NO:36), induced statistically significant changes”.

For WDQV: tetrapeptide W, D, Q, V, the “average distance covered / track length” value (zebrafish (Danio rerio) [2]) was “no influence”, the “time spent in the dark compartment” value (zebrafish (Danio rerio) [4]; FQSE 10 mg/kg, WDQV 10 mg/kg) was “reduction” and the “time spent in the light compartment” value (zebrafish (Danio rerio) [4]; diazepam 5 mg/kg, FQSE 10 mg/kg, WDQV 10 mg/kg) was “increase”. The “basic behavioral parameters in open field, light/dark box and shoaling tests” value (zebrafish (Danio rerio) [5]) was “no significant effects” and the “behavior in tests other than the light/dark box” value (zebrafish (Danio rerio) [5]; WDQV 10 mg/kg) was “did not reveal any effect”.

With “YLGYLEQLLR [ACZ-10, L-tyrosyl-L-leucyl-glycyl-L-tyrosyl-L-leucyl-L-alpha-glutamyl-L-glutaminyl-L-leucyl-L-leucyl-L-arginine]” the “latent period of leaving the bottom” value (zebrafish (Danio rerio) [2]; [7]) was “decreased significantly”, the “time spent in the upper part of the aquarium” value (zebrafish (Danio rerio) [2]; [7]) was “did not affect” and the “average distance covered / track length” value (zebrafish (Danio rerio) [2]) was “did not demonstrate any significant effects”. For the same compound, the “time spent at the surface of the aquarium” value (zebrafish (Danio rerio) [2]; ACZ-10 0.6 mg/kg) was “approximately twofold increase” and the “time spent in the compartment near the shoal” value (zebrafish (Danio rerio) [3]; [6]) was “statistically significant decrease”.

For “YPFPGPI [BCM-7, L-tyrosyl-L-prolyl-L-phenylalanyl-L-prolyl-glycyl-L-prolyl-L-isoleucine]”, the “average distance covered / track length” value (zebrafish (Danio rerio) [2]) was “slight increase”, the “time spent in the compartment near the shoal” value (zebrafish (Danio rerio) [3]; [6]) was “decrease” and the “time spent outside the shoaling compartment” value (zebrafish (Danio rerio) [3]; diazepam 1.25 mg/kg, BCM-7 5 mg/kg) was “did not demonstrate a statistically significant effect”.
